From EP2766361B1, “8-CARBAMOYL-2-(2,3-DISUBSTITUTED PYRID-6-YL)-1,2,3,4-TETRAHYDROISOQUINOLINE DERIVATIVES AS APOPTOSIS-INDUCING AGENTS FOR THE TREATMENT OF CANCER AND IMMUNE AND AUTOIMMUNE DISEASES” (priority 2011, dated 2013)

These molecules were tested on mouse FL5.12 cells transfected with Bcl-xL (assay: FL5.12 cellular assay (cell viability, CellTiter-Glo)). Conditions: IL-3-depleted, 3% FBS assay media, 24 hours, read-out: FL5.12 Bcl-xL, -IL3, EC50.
Format: cell-based
Description: Cell viability was assayed using the CellTiter-Glo assay (Promega Corp., Madison, WI) according to the manufacturer instructions. Individual determinations were the result of duplicate values. […] Table 2. In Vitro Data

SMILES | EC50 [nM]
Cc1nn(CC23CC4CC(CC(C4)C2)C3)c(C)c1-c1ccc(N2CCc3cccc(C(=O)Nc4nc5ccccc5s4)c3C2)nc1C(=O)O [Example 2, 6-[8-(1,3-benzothiazol-2-ylcarbamoyl)-3,4-dihydroisoquinolin-2(1H)-yl]-3-[3,5-dimethyl-1-(tricyclo[3.3.1.1^3,7]dec-1-ylmethyl)-1H-pyrazol-4-yl]pyridine-2-carboxylic acid] | < 1
O=C(Nc1nc2ccccc2s1)c1cccc2c1CN(c1ccc(-c3cnn(CC4CCC5(CCC5)CC4)c3)c(C(=O)O)n1)CC2 [Example 4, 6-[8-(1,3-benzothiazol-2-ylcarbamoyl)-3,4-dihydroisoquinolin-2(1H)-yl]-3-[1-(spiro[3.5]non-7-ylmethyl)-1H-pyrazol-4-yl]pyridine-2-carboxylic acid] | 918
CC12CC3CC(C)(C1)CC(Cn1cc(-c4ccc(N5CCc6cccc(C(=O)Nc7nc8ccccc8s7)c6C5)nc4C(=O)O)cn1)(C3)C2 [Example 5, 6-[8-(1,3-benzothiazol-2-ylcarbamoyl)-3,4-dihydroisoquinolin-2(1H)-yl]-3-(1-{[3,5-dimethyltricyclo[3.3.1.1^3,7]dec-1-yl]methyl}-1H-pyrazol-4-yl)pyridine-2-carboxylic acid] | 2
O=C(Nc1nc2ccccc2s1)c1cccc2c1CN(c1ccc(-c3cnn(CC45CC6CC(CC(O)(C6)C4)C5)c3)c(C(=O)O)n1)CC2 [Example 6, 6-[8-(1,3-benzothiazol-2-ylcarbamoyl)-3,4-dihydroisoquinolin-2(1H)-yl]-3-(1-{[3-hydroxytricyclo[3.3.1.1^3,7]dec-1-yl]methyl}-1H-pyrazol-4-yl)pyridine-2-carboxylic acid] | 146
COC12CC3CC(CC(Cn4cc(-c5ccc(N6CCc7cccc(C(=O)Nc8nc9ccccc9s8)c7C6)nc5C(=O)O)cn4)(C3)C1)C2 [Example 7, 6-[8-(1,3-benzothiazol-2-ylcarbamoyl)-3,4-dihydroisoquinolin-2(1H)-yl]-3-(1-{[3-methoxytricyclo[3.3.1.1^3,7]dec-1-yl]methyl}-1H-pyrazol-4-yl)pyridine-2-carboxylic acid] | 37
COCCOC12CC3CC(CC(Cn4cc(-c5ccc(N6CCc7cccc(C(=O)Nc8nc9ccccc9s8)c7C6)nc5C(=O)O)cn4)(C3)C1)C2 [Example 8, 6-[8-(1,3-benzothiazol-2-ylcarbamoyl)-3,4-dihydroisoquinolin-2(1H)-yl]-3-(1-{[3-(2-methoxyethoxy)tricyclo[3.3.1.1^3,7]dec-1-yl]methyl}-1H-pyrazol-4-yl)pyridine-2-carboxylic acid] | 147
CC12CC3(C)CC(C)(C1)CC(Cn1cc(-c4ccc(N5CCc6cccc(C(=O)Nc7nc8ccccc8s7)c6C5)nc4C(=O)O)cn1)(C2)C3 [Example 9, 6-[8-(1,3-benzothiazol-2-ylcarbamoyl)-3,4-dihydroisoquinolin-2(1H)-yl]-3-{1-[(3,5,7-trimethyltricyclo[3.3.1.1^3,7]dec-1-yl)methyl]-1H-pyrazol-4-yl}pyridine-2-carboxylic acid] | 3
O=C(Nc1nc2ccccc2s1)c1cccc2c1CN(c1ccc(-c3cnn(CC45CC6CC(CC(Br)(C6)C4)C5)c3)c(C(=O)O)n1)CC2 [Example 11, 6-[8-(1,3-benzothiazol-2-ylcarbamoyl)-3,4-dihydroisoquinolin-2(1H)-yl]-3-(1-{[3-bromotricyclo[3.3.1.1^3,7]dec-1-yl]methyl}-1H-pyrazol-4-yl)pyridine-2-carboxylic acid] | 11
CC(C)OC12CC3CC(CC(Cn4cc(-c5ccc(N6CCc7cccc(C(=O)Nc8nc9ccccc9s8)c7C6)nc5C(=O)O)cn4)(C3)C1)C2 [Example 12, 6-[8-(1,3-benzothiazol-2-ylcarbamoyl)-3,4-dihydroisoquinolin-2(1H)-yl]-3-(1-{[3-(propan-2-yloxy)tricyclo[3.3.1.1^3,7]dec-1-yl]methyl}-1H-pyrazol-4-yl)pyridine-2-carboxylic acid] | 24
Cc1c(-c2ccc(N3Cc4c(C(=O)Nc5nc6ccccc6s5)cccc4C(C)(C)C3)nc2C(=O)O)cnn1CC12CC3CC(CC(C3)C1)C2 [Example 14, 6-[8-(1,3-benzothiazol-2-ylcarbamoyl)-4,4-dimethyl-3,4-dihydroisoquinolin-2(1H)-yl]-3-[5-methyl-1-(tricyclo[3.3.1.1^3,^7]dec-1-ylmethyl)-1H-pyrazol-4-yl]pyridine-2-carboxylic acid] | < 1
O=C(Nc1nc2ccccc2s1)c1cccc2c1CN(c1ccc(-c3cnn(CC45CC6CC(C4)CC(N4CCOCC4)(C6)C5)c3)c(C(=O)O)n1)CC2 [Example 15, 6-[8-(1,3-benzothiazol-2-ylcarbamoyl)-3,4-dihydroisoquinolin-2(1H)-yl]-3-(1-{[3-(morpholin-4-yl)tricyclo[3.3.1.1^3,7]dec-1-yl]methyl}-1H-pyrazol-4-yl)pyridine-2-carboxylic acid] | 110
Cc1c(-c2ccc(N3CCc4cccc(C(=O)Nc5nc6ccccc6s5)c4C3)nc2C(=O)NS(C)(=O)=O)cnn1CC12CC3CC(CC(C3)C1)C2 [Example 17, N-(1,3-benzothiazol-2-yl)-2-{6-[(methylsulfonyl)carbamoyl]-5-[5-methyl-1-(tricyclo[3.3.1.1^3,7]dec-1-ylmethyl)-1H-pyrazol-4-yl]pyridin-2-yl}-1,2,3,4-tetrahydroisoquinoline-8-carboxamide] | 1
Cc1c(-c2ccc(N3CCc4cccc(C(=O)Nc5nc6ccccc6s5)c4C3)nc2-c2nn[nH]n2)cnn1CC12CC3CC(CC(C3)C1)C2 [Example 19, N-(1,3-benzothiazol-2-yl)-2-{5-[5-methyl-1-(tricyclo[3.3.1.1^3,7]dec-1-ylmethyl)-1H-pyrazol-4-yl]-6-(2H-tetrazol-5-yl)pyridin-2-yl}-1,2,3,4-tetrahydroisoquinoline-8-carboxamide] | 3
Cc1cc(OCC23CC4CC(CC(C4)C2)C3)ccc1-c1ccc(N2CCc3cccc(C(=O)Nc4nc5ccccc5s4)c3C2)nc1C(=O)O [Example 20, 6-[8-(1,3-benzothiazol-2-ylcarbamoyl)-3,4-dihydroisoquinolin-2(1H)-yl]-3-{2-methyl-4-[tricyclo[3.3.1.1^3,7]dec-1-ylmethoxy]phenyl}pyridine-2-carboxylic acid] | > 1000
Cc1c(OCC23CC4CC(CC(C4)C2)C3)cccc1-c1ccc(N2CCc3cccc(C(=O)Nc4nc5ccccc5s4)c3C2)nc1C(=O)O [Example 21, 6-[8-(1,3-benzothiazol-2-ylcarbamoyl)-3,4-dihydroisoquinolin-2(1H)-yl]-3-{2-methyl-3-[tricyclo[3.3.1.1^3,7]dec-1-ylmethoxy]phenyl}pyridine-2-carboxylic acid] | 343
O=C(Nc1nc2ccccc2s1)c1cccc2c1CN(c1ccc(-c3cccc(OCC45CC6CC(CC(C6)C4)C5)c3)c(C(=O)O)n1)CC2 [Example 22, 6-[8-(1,3-benzothiazol-2-ylcarbamoyl)-3,4-dihydroisoquinolin-2(1H)-yl]-3-{3-[tricyclo[3.3.1.1^3,7]dec-1-ylmethoxy]phenyl}pyridine-2-carboxylic acid] | > 1000
O=C(Nc1nc2ccccc2s1)c1cccc2c1CN(c1ccc(-c3ccnc(OCC45CC6CC(CC(C6)C4)C5)c3)c(C(=O)O)n1)CC2 [Example 25, 6-[8-(1,3-benzothiazol-2-ylcarbamoyl)-3,4-dihydroisoquinolin-2(1H)-yl]-2'-(tricyclo[3.3.1.1^3,7]dec-1-ylmethoxy)-3,4'-bipyridine-2-carboxylic acid] | > 1000
O=C(Nc1nc2ccccc2s1)c1cccc2c1CN(c1ccc(-c3cnn(CC45CC6CC(C4)CC(OCCN4CCOCC4)(C6)C5)c3)c(C(=O)O)n1)CC2 [Example 26, 6-[8-(1,3-benzothiazol-2-ylcarbamoyl)-3,4-dihydroisoquinolin-2(1H)-yl]-3-[1-({3-[2-(morpholin-4-yl)ethoxy]tricyclo[3.3.1.1^3,7]dec-1-yl}methyl)-1H-pyrazol-4-yl]pyridine-2-carboxylic acid] | 243
Cc1c(-c2ccc(N3CCc4cccc(C(=O)Nc5nc6ccccc6s5)c4C3)nc2C(=O)O)ccnc1OCC12CC3CC(CC(C3)C1)C2 [Example 27, 6-[8-(1,3-benzothiazol-2-ylcarbamoyl)-3,4-dihydroisoquinolin-2(1H)-yl]-3'-methyl-2'-(tricyclo[3.3.1.1^3,7]dec-1-ylmethoxy)-3,4'-bipyridine-2-carboxylic acid] | 214
N#Cc1c(-c2ccc(N3CCc4cccc(C(=O)Nc5nc6ccccc6s5)c4C3)nc2C(=O)O)cnn1CC12CC3CC(CC(C3)C1)C2 [Example 29, 6-[8-(1,3-benzothiazol-2-ylcarbamoyl)-3,4-dihydroisoquinolin-2(1H)-yl]-3-{5-cyano-1-[tricyclo[3.3.1.1^3,7]dec-1-ylmethyl]-1H-pyrazol-4-yl}pyridine-2-carboxylic acid] | 3
Cc1c(-c2ccc(N3CCc4cccc(C(=O)Nc5nc6ncccc6s5)c4C3)nc2C(=O)O)cnn1CC12CC3CC(CC(C3)C1)C2 [Example 30, 3-[5-methyl-1-(tricyclo[3.3.1.1^3,7]dec-1-ylmethyl)-1H-pyrazol-4-yl]-6-[8-([1,3]thiazolo[4,5-b]pyridin-2-ylcarbamoyl)-3,4-dihydroisoquinolin-2(1H)-yl]pyridine-2-carboxylic acid] | 49
Cc1c(-c2ccc(N3CCc4cccc(C(=O)Nc5nc6cnccc6s5)c4C3)nc2C(=O)O)cnn1CC12CC3CC(CC(C3)C1)C2 [Example 31, 3-[5-methyl-1-(tricyclo[3.3.1.1^3,7]dec-1-ylmethyl)-1H-pyrazol-4-yl]-6-[8-([1,3]thiazolo[4,5-c]pyridin-2-ylcarbamoyl)-3,4-dihydroisoquinolin-2(1H)-yl]pyridine-2-carboxylic acid] | 5
Cc1c(-c2ccc(N3CCc4cccc(C(=O)Nc5nc6ccccc6s5)c4C3)nc2C(=O)O)cnn1CC12CC3CC(C)(CC(C)(C3)C1)C2 [Example 32, 6-[8-(1,3-benzothiazol-2-ylcarbamoyl)-3,4-dihydroisoquinolin-2(1H)-yl]-3-(1-{[3,5-dimethyltricyclo[3.3.1.1^3,7]dec-1-yl]methyl}-5-methyl-1H-pyrazol-4-yl)pyridine-2-carboxylic acid] | 1
